Reference: patent US20240034735A1, “NOVEL COMPOUNDS” (AC Immune SA, priority 2022, published 2024)
Read-outs that look alike come from different tables or passages of the source.

Tested on: NLRP3 inflammasome pathway
Test: NLRP3 inflammasome pathway activation assay (IL-1β release, HTRF)
Type: cell-based, Human
Details: for IC50: IL-1β release, PMA-differentiated, LPS-primed cells; for inhibition of IL-1 beta release compared to the equivalent compounds in which Z1=C and Z2=N: human monocyte-like cells, MSU or Nigericin as activators, 8 vs 13, 11 vs 12
Description: The following assays were used to determine the inhibitory activity of test compounds on the NLRP3 inflammasome pathway using common stimuli Nigericin (Invivogen) or monosodium urate crystals (MSU) (Invivogen).
Human monocyte-like cells were seeded at 25000 per well in a 384-well plate and were differentiated overnight into macrophages with 10 ng/ml PMA (Phorbol Myristate Acetate). The following day, medium containing 10 ng/ml LPS (Lipopolysaccharide) was added.
For IL-1β quantification, supernatants were analyzed using HTRF kit according to the manufacturer's instructions (Cisbio 62HIL1BPEH), Briefly, in a 384-well ProxiPlate™ microplate, 8 μl of sample was mixed, with 5 μl of Anti-IL1β Cryptate antibody (40×) and Anti-IL1β XL antibody (40×). Then, incubated overnight at RT. Reading was done using an EnVision Reader (PerkinElmer).

[1] = Homo sapiens, stimulation with MSU 200 μg/ml for 3 h, read-out: IC50 Human monocyte-like cells MSU
[2] = Homo sapiens, stimulation with Nigericin 3.75 μM for 3 h, read-out: IC50 Human monocyte-like cells Nigericin
[3] = stimulation with MSU 200 μg/ml for 3 h, read-out: IC50 Human monocyte-like cells MSU
[4] = stimulation with Nigericin 3.75 μM for 3 h, read-out: IC50 Human monocyte-like cells Nigericin

| SMILES | IC50 [1] [nM] | IC50 [2] [nM] | also measured |
| --- | --- | --- | --- |
| CN1CCC[C@@H](Nc2nnc(-c3ccc(C(F)(F)F)cc3O)n3cccc23)C1 [Example 1, (R)-2-(1-((1-methylpiperidin-3-yl)amino)pyrrolo[1,2-d][1,2,4]triazin-4-yl)-5-(trifluoromethyl)phenol] | < 5 | < 5 |  |
| CN1CCC[C@@H](Nc2nnc(-c3ccc(C(F)(F)F)cc3O)n3nccc23)C1 [Example 2, (R)-2-(4-((1-methylpiperidin-3-yl)amino)pyrazolo[1,5-d][1,2,4]triazin-7-yl)-5-(trifluoromethyl)phenol] | 5 to 20 |  |  |
| CN1CCC[C@@H](Nc2nnc(-c3ccc(OC(F)F)cc3)n3cccc23)C1 [Example 3, (R)-4-(4-(difluoromethoxy)phenyl)-N-(1-methylpiperidin-3-yl)pyrrolo[1,2-d][1,2,4]triazin-1-amine] | 5 to 20 |  |  |
| CN1CCC[C@@H](Nc2nnc(-c3ccc(OC(F)(F)F)cc3)n3cccc23)C1 [Example 4, (R)-N-(1-methylpiperidin-3-yl)-4-(4-(trifluoromethoxy)phenyl)pyrrolo[1,2-d][1,2,4]triazin-1-amine] | 20 to 100 | 20 to 100 |  |
| CN1CCC[C@@H](Nc2nnc(-c3ccc(Cl)cc3)n3ccnc23)C1 [Example 6, 5-(4-Chlorophenyl)-N-[(3R)-1-methyl-3-piperidyl]imidazo[1,2-d][1,2,4]triazin-8-amine] | 20 to 100 |  |  |
| CC1(O)CC(Oc2nnc(-c3ccc(C(F)(F)F)cc3O)n3cccc23)C1 (centres unmarked) [Example 8, 2-(1-((1s,3s)-3-hydroxy-3-methylcyclobutoxy)pyrrolo[1,2-d][1,2,4]triazin-4-yl)-5-(trifluoromethyl)phenol] | < 5 | 5 to 20 | inhibition of IL-1 beta release compared to the equivalent compounds in which Z1=C and Z2=N: significantly increased inhibition |
| CN1CC[C@@H](Nc2nnc(-c3ccc(Cl)cc3O)n3ccnc23)C1 [Example 9] | 20 to 100 |  |  |
| C[C@]1(O)C[C@@H](Nc2nnc(-c3ccc(C(F)(F)F)cc3O)n3ccc(F)c23)C1 [Example 10, 2-(8-Fluoro-1-(((1s,3s)-3-hydroxy-3-methylcyclobutyl)amino)pyrrolo[1,2-d][1,2,4]triazin-4-yl)-5-(trifluoromethyl)phenol] | < 5 |  |  |
| C[C@]1(O)C[C@@H](Nc2nnc(-c3ccc(C(F)(F)F)cc3O)c3cccn23)C1 [Example 11, 2-(4-(((1s,3s)-3-hydroxy-3-methylcyclobutyl)-amino)pyrrolo[1,2-d][1,2,4]triazin-1-yl)-5-(trifluoromethyl)phenol] | < 5 | 5 to 20 | inhibition of IL-1 beta release compared to the equivalent compounds in which Z1=C and Z2=N: significantly increased inhibition |
| C[C@]1(O)C[C@@H](Nc2nnc(-c3ccc(C(F)(F)F)cc3O)n3cccc23)C1 [Example 12, 2-(1-(((1s,3s)-3-hydroxy-3-methylcyclobutyl)amino)pyrrolo[1,2-d][1,2,4]triazin-4-yl)-5-(trifluoromethyl)phenol] |  |  | IC50 [3]: 5 to 20 nM; IC50 [4]: 20 to 100 nM |
| C[C@]1(O)C[C@@H](Oc2nnc(-c3ccc(C(F)(F)F)cc3O)c3cccn23)C1 [Example 13, 2-(4-((1s,3s)-3-Hydroxy-3-methylcyclobutoxy)pyrrolo[1,2-d][1,2,4]triazin-1-yl)-5-(trifluoromethyl)phenol] |  |  | IC50 [3]: 5 to 20 nM; IC50 [4]: 20 to 100 nM |
| CCN1CCC[C@@H](Nc2nnc(-c3ccc(Cl)cc3O)n3ccnc23)C1 [Example 15] | < 5 |  |  |
